Results reported in the supplement of paper PMC9763283.
“And” between values parts separate entries of the source, which are not always exact repeats. Identical values can stand only once.

What was measured:
Experiment in all cases: area under growth-rate inhibition curve (AUC GRI) (dimensionless (GR-based AUC)); higher = less growth inhibition
Conditions in all cases: exposure time: 72 h; concentrations: 0.1, 1, 10 uM
BT474-LTR = system: BT474-LTR
Procedure, shortened: (§1)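 The area under the growth-rate inhibition curve was measured in six breast cancer cell line models, covering triple-negative lines and HER2+ lines, both parental and resistant to a two-drug combination. Cells were exposed to compound at 0.1, 1 or 10 µM for 72 h, fixed in 4% paraformaldehyde, and nuclei were stained with Hoechst 33342 or DAPI for imaging and counting. Day 0 plates, untreated Day 3 plates and DMSO controls served to correct growth across 2 biological replicates.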

BT474-P = system: BT474-P
Procedure, shortened: as §1

MDA-MB-231 = system: MDA-MB-231
Procedure, shortened: as §1

MDA-MB-468 = system: MDA-MB-468
Procedure, shortened: as §1

SKBR3-LTR = system: SKBR3-LTR
Procedure, shortened: as §1

SKBR3-P = system: SKBR3-P
Procedure, shortened: as §1

Row | SMILES | area under growth-rate inhibition curve (BT474-LTR) | area under growth-rate inhibition curve (BT474-P) | area under growth-rate inhibition curve (MDA-MB-231) | area under growth-rate inhibition curve (MDA-MB-468) | area under growth-rate inhibition curve (SKBR3-LTR) | area under growth-rate inhibition curve (SKBR3-P)
1 | CCOC(=O)[C@H](CCc1ccccc1)N[C@H]1CCCN2CCC[C@@H](C(=O)O)N2C1=O.O [Cilazapril Monohydrate] | 1.1 | 1.04 | 1.03 | 1.04 | 1.07 | 1.04
2 | O=C1CCc2cc(OCCCCc3nnnn3C3CCCCC3)ccc2N1 [Cilostazol] | 1.04 | 1 | 1.05 | 1.03 | 1.06 | 1.03
3 | CNC(=NCCSCc1nc[nH]c1C)NC#N [Cimetidine] | 1.05 and 1.12 | 1.02 and 1.06 | 1.04 and 1.05 | 1.04 and 1.03 | 1.05 and 1.06 | 1.02
4 | C[C@@H](NCCCc1cccc(C(F)(F)F)c1)c1cccc2ccccc12.[Cl-].[H+] [Cinacalcet HCl] | 0.922 | 0.9 | 0.931 | 0.896 | 0.883 | 0.909
5 | O=C(O)C=CC(=O)O.O=C(c1ccc(OCCCc2c[nH]cn2)cc1)C1CC1 [Ciproxifan] | 1.06 | 0.976 | 1.02 | 0.991 | 1.07 | 1.01
6 | COc1ccc(C[C@@H]2c3cc(OC)c(OC)cc3CC[N@+]2(C)CCC(=O)OCCCCCOC(=O)CC[N@@+]2(C)CCc3cc(OC)c(OC)cc3[C@H]2Cc2ccc(OC)c(OC)c2)cc1OC.O=S(=O)([O-])c1ccccc1.O=S(=O)([O-])c1ccccc1 [Cisatracurium Besylate] | 1.01 | 0.998 | 0.997 | 0.988 | 1.01 | 0.961
7 | C[NH+]1CCC[C@@H]1CCO[C@](C)(c1ccccc1)c1ccc(Cl)cc1.O=C([O-])/C=C/C(=O)O [Clemastine Fumarate] | 1.02 | 0.941 | 1.02 | 0.932 | 0.958 | 0.898
8 | CCN(CC)CCOc1ccc(C(=C(Cl)c2ccccc2)c2ccccc2)cc1.O=C(O)CC(O)(CC(=O)O)C(=O)O [Clomifene citrate] | 0.876 | 0.796 | 0.915 | 0.94 | 0.941 | 0.914
9 | Cl.Clc1cccc(Cl)c1NC1=NCCN1 [Clonidine HCl] | 1.16 | 1.08 | 1.05 | 1.07 | 1.06 | 1.04
10 | COC(=O)[C@H](c1ccccc1Cl)N1CCc2sccc2C1 [Clopidogrel] | 1.07 | 1.06 | 1 | 1.03 | 1.06 | 1.01
11 | CN1CCN(C2=Nc3cc(Cl)ccc3Nc3ccccc32)CC1 [Clozapine] | 1.09 | 1.06 | 1.04 | 1.03 | 1.07 | 1.01
12 | CN1CCN(C(c2ccccc2)c2ccccc2)CC1.[Cl-].[Cl-].[H+].[H+] [Cyclizine 2HCl] | 1.07 | 1.03 | 1.03 | 1.02 | 1 | 1.01
13 | CN1CCC(=C2c3ccccc3C=Cc3ccccc32)CC1.[Cl-].[H+] [Cyproheptadine HCl] | 1.03 | 1.03 | 1.02 | 1 | 1.09 | 1
14 | CCOc1ccc(Cc2cc([C@@H]3O[C@H](CO)[C@@H](O)[C@H](O)[C@H]3O)ccc2Cl)cc1 [Dapagliflozin] | 1.07 | 1.01 | 1.01 | 1.01 | 1.05 | 1.01
15 | CN(C)[C@@H](CCOc1cccc2ccccc12)c1ccccc1.[Cl-].[H+] [Dapoxetine HCl] | 1.03 | 0.985 | 1.02 | 0.991 | 1.03 | 0.974
16 | C[N+](C)(C)CCCCCCCCCC[N+](C)(C)C.[Br-].[Br-] [Decamethonium Bromide] | 1.1 | 1.06 | 1.04 | 1.03 | 1.04 | 1.03
17 | Clc1ccc2c(c1)CCc1cccnc1C2=C1CCNCC1 [Desloratadine] | 1.07 | 0.984 | 1 | 0.988 | 1.03 | 0.998
18 | N=C(N)NCCC[C@@H](NC(=O)[C@@H]1CCCN1C(=O)[C@@H]1CSSCCC(=O)N[C@@H](Cc2ccc(O)cc2)C(=O)N[C@@H](Cc2ccccc2)C(=O)N[C@@H](CCC(N)=O)C(=O)N[C@@H](CC(N)=O)C(=O)N1)C(=O)NCC(N)=O [Desmopressin] | 0.999 | 0.995 | 1.01 | 1.02 | 1.01 | 1.02
19 | CN(C)CC(c1ccc(O)cc1)C1(O)CCCCC1.O=C(O)CCC(=O)O (stereo not given) [Desvenlafaxine Succinate] | 1.09 | 1.06 | 1.02 | 1.05 | 1.08 | 1.01
20 | CN(C)CC(c1ccc(O)cc1)C1(O)CCCCC1 (stereo not given) [Desvenlafaxine] | 1.07 | 1.03 | 1 | 1.03 | 1.05 | 1
21 | Cc1cccc(Cc2cnc[nH]2)c1C.Cl [Detomidine HCl] | 1.04 | 1.01 | 1.03 | 1.02 | 1.08 | 0.991
22 | Cc1cccc(C(C)c2c[nH]cn2)c1C (stereo not given) [Dexmedetomidine] | 1.1 | 1.04 | 1.04 | 1.02 | 1.04 | 1.04
23 | Br.COc1ccc2c(c1)[C@@]13CCCCC1C(C2)N(C)CC3 (stereo not given in full) [Dextromethorphan hydrobromide] | 1.04 | 1.01 | 1.04 | 1.03 | 1.06 | 1.02
24 | CC12CCC3=C4CCC(=O)C=C4CCC3C1CCC2(O)CC#N (stereo not given) [Dienogest] | 1.12 | 1.05 | 1.03 | 1.03 | 1.04 | 1.01
25 | CCCC(=O)O[C@]1(C(=O)COC(C)=O)CC[C@H]2[C@@H]3C[C@H](F)C4=CC(=O)C=C[C@]4(C)[C@@]3(F)[C@@H](O)C[C@@]21C [Difluprednate] | 1.02 | 0.976 | 0.975 | 1.03 | 1.04 | 0.939

Row | SMILES | area under growth-rate inhibition curve (BT474-LTR) | area under growth-rate inhibition curve (BT474-P) | area under growth-rate inhibition curve (MDA-MB-231) | area under growth-rate inhibition curve (MDA-MB-468) | area under growth-rate inhibition curve (SKBR3-LTR) | area under growth-rate inhibition curve (SKBR3-P)
26 | CN1C[C@H](C(=O)N[C@]2(C)O[C@@]3(O)[C@@H]4CCCN4C(=O)[C@H](Cc4ccccc4)N3C2=O)C[C@@H]2c3cccc4[nH]cc(c34)C[C@H]21.CS(=O)(=O)O [Dihydroergotamine mesylate] | 1.01 | 0.974 | 0.986 | 1.02 | 1.05 | 0.947
27 | COS(=O)(=O)[O-].C[N+]1(C)CCC(=C(c2ccccc2)c2ccccc2)CC1 [Diphemanil Methylsulfate] | 1.03 | 1.05 | 1.03 | 1.01 | 1.03 | 0.971
28 | OCCN(CCO)c1nc(N2CCCCC2)c2nc(N(CCO)CCO)nc(N3CCCCC3)c2n1 [Dipyridamole] | 1.12 | 1.04 | 0.97 | 0.962 | 1.05 | 1.05
29 | CC(CCc1ccc(O)cc1)NCCc1ccc(O)c(O)c1.[Cl-].[H+] (stereo not given) [Dobutamine hydrochloride] | 1.01 | 0.992 | 1.02 | 1.04 | 1.07 | 1.03
30 | O=c1[nH]c2ccccc2n1CCCN1CCC(n2c(=O)[nH]c3cc(Cl)ccc32)CC1 [Domperidone] | 1 | 0.993 | 1.01 | 0.926 | 1.04 | 0.962
31 | NCCc1ccc(O)c(O)c1.[Cl-].[H+] [Dopamine HCl] | 1.11 | 1.04 | 1.02 | 1.03 | 1.07 | 1.02
32 | COc1cc2nc(N3CCN(C(=O)C4COc5ccccc5O4)CC3)nc(N)c2cc1OC.CS(=O)(=O)O (stereo not given) [Doxazosin Mesylate] | 1.07 | 0.991 | 0.99 | 0.966 | 1.03 | 0.958
33 | O=C(CCCN1CC=C(n2c(=O)[nH]c3ccccc32)CC1)c1ccc(F)cc1 [Droperidol] | 1.04 | 1.03 | 1.02 | 0.992 | 1.07 | 1.02
34 | CC12CCC(=O)C=C1C1CC1C1C2CCC2(C)C1C1CC1C21CCC(=O)O1 (stereo not given) [Drospirenone] | 1.09 | 1.04 | 1.01 | 1.05 | 1.05 | 1.03
35 | CNCC[C@H](Oc1cccc2ccccc12)c1cccs1.[Cl-].[H+] [Duloxetine HCl] | 0.98 | 0.892 | 1 | 0.88 | 1.02 | 0.964
36 | CC(C)(c1ccc(OCC(O)CO)cc1)c1ccc(OCC(O)CCl)cc1 (stereo not drawn) [EPI-001] | 1.07 | 0.993 | 1.05 | 1.01 | 1.07 | 1.01
37 | CN1CCCC1Cc1c[nH]c2ccc(CCS(=O)(=O)c3ccccc3)cc12.[Br-].[H+] (stereo not given) [Eletriptan HBr] | 1.14 | 1.03 | 1.04 | 1.02 | 1.03 | 1.01
38 | COc1ccc(CN(C(=O)C(N)Cc2c(C)cc(C(N)=O)cc2C)C(C)c2ncc(-c3ccccc3)[nH]2)cc1C(=O)O (stereo not given) [Eluxadoline] | 1.04 | 1 | 1.04 | 1.04 | 1.04 | 1.02
39 | CNC[C@H](O)c1ccc(O)c(O)c1.O=C(O)[C@H](O)[C@@H](O)C(=O)O [Epinephrine Bitartrate] | 1.06 | 1.03 | 0.946 | 1.02 | 1.1 | 1.01
40 | CNCC(O)c1ccc(O)c(O)c1.[Cl-].[H+] (stereo not given) [Epinephrine HCl] | 1.07 | 1.04 | 0.965 | 1 | 1.03 | 1.02
41 | CCCCc1ncc(C=C(Cc2cccs2)C(=O)O)n1Cc1ccc(C(=O)O)cc1.CS(=O)(=O)O [Eprosartan mesylate] | 1.06 | 1.02 | 1.04 | 1.05 | 1.06 | 1.03
42 | Oc1ccc([C@H]2COc3cc(O)ccc3C2)cc1 [Equol] | 1.08 | 1.07 | 1.02 | 1.01 | 1.05 | 1.05
43 | CN(C)CCC[C@@]1(c2ccc(F)cc2)OCc2cc(C#N)ccc21.O=C(O)C(=O)O [Escitalopram Oxalate] | 1.1 | 1.03 | 1.02 | 1.02 | 1.02 | 0.985
44 | CCCCC(=O)O[C@H]1CC[C@H]2[C@@H]3CCc4cc(O)ccc4[C@H]3CC[C@]12C [Estradiol valerate] | 1.05 | 1.04 | 1.01 | 1.03 | 1.05 | 1.02
45 | C[C@]12CC[C@@H]3c4ccc(O)cc4CC[C@H]3[C@@H]1C[C@@H](O)[C@@H]2O [Estriol] | 1.01 | 0.979 | 0.988 | 0.987 | 1.01 | 0.989
46 | C[C@]12CC[C@@H]3c4ccc(O)cc4CC[C@H]3[C@@H]1CCC2=O [Estrone] | 1.08 | 1.07 | 1.03 | 1 | 1.05 | 1.02
47 | CCOC(=O)c1cncn1C(C)c1ccccc1 (stereo not given) [Etomidate] | 1.09 | 1.08 | 1.05 | 1.03 | 1.07 | 0.999
48 | C#C[C@]1(O)CC[C@H]2[C@@H]3CCC4=CC(=O)CC[C@@H]4[C@H]3C(=C)C[C@@]21CC [Etonogestrel] | 0.993 | 0.958 | 0.976 | 1.03 | 1.05 | 1
49 | CC1=C(C(=O)OC2CCCCC2)C(c2ccc([N+](=O)[O-])cc2)C2=C(CC(C)(C)CC2=O)N1 (stereo not given) [FLI-06] | 1.01 | 0.895 | 0.878 | 0.915 | 0.928 | 0.915
50 | NC(N)=Nc1nc(CSCCC(N)=NS(N)(=O)=O)cs1 [Famotidine] | 1.09 | 1.02 | 1.02 | 1.05 | 1.08 | 1.03
